According to patent US8029770B2 (Rutgers, The State University, priority 2003, dated 2011):
Marks after values point to notes of the source that are not given here.

Tested on: apoptotic sunburn cells in the epidermis of SKH-1 mice
Assay: UVB-induced apoptotic sunburn cells in the epidermis of SKH-1 mice after topical application
Type: in vivo, mouse
Conditions: for activity in stimulating UVB-induced apoptosis in mouse skin, compared with caffeine: first study of compounds structurally related to caffeine, given after UVB; for Percent Apoptotic Sunburn Cells: 6.2 μmole in 100 μL acetone right after UVB 30 mJ/cm^2 and at 30 and 120 min, 6 h after UVB; for activity in stimulating UVB-induced apoptosis, compared with caffeine: similar study, acetone:water (90:10) as vehicle (Table 1)
Description: Chemicals and Animals. […] Female SKH-1 hairless mice (6 to 7 weeks old) were purchased from the Charles River Breeding Laboratories, and the animals were kept in an animal facility for at least one week before use at 7 to 8 weeks of age. Mice were given water and PURINA® Laboratory CHOW® 5001 diet from Ralston-Purina (St. […] For the analysis conducted herein, 5 mice were used per group. Treatment of Mice with UVB. […] The radiation was further calibrated with a model IL-1700 research radiometer/photometer (International Light, Newburyport, Mass.). Measurement of apoptotic sunburn cells. Identification of apoptoic sunburn cells was based morphologically on cell shrinkage and nuclear condensation due to fragmentation of the cells. […] Six hours after UVB, the animals were sacrificed and apoptotic sunburn cells in the epidermis were determined morphologically. […] Six hours after UVB, the animals were sacrificed and apoptotic sunburn cells in the epidermis were determined morphologically. […] Acetone Formulation. […] Six hours after UVB, the animals were sacrificed and apoptotic sunburn cells in the epidermis were determined morphologically. […] […] Formulations. […] Six hours after UVB the animals were sacrificed and apoptotic sunburn cells in the epidermis were determined morphologically. […] Six hours after UVB the animals were sacrificed and apoptotic sunburn cells in the epidermis were determined morphologically.

[1] = Table 1, vs acetone group, 6.2 μmole x3 after UVB 30 mJ/cm^2, 6 h

Cn1c(=O)c2ncn(C)c2n(C)c1=O [1,3,9-trimethylxanthine]
activity in stimulating UVB-induced apoptosis in mouse skin, compared with caffeine: somewhat less active than caffeine

Cn1c(=O)[nH]c2ncn(C)c2c1=O [1,7-dimethylxanthine]
activity in stimulating UVB-induced apoptosis in mouse skin, compared with caffeine: as active as caffeine

Cn1c(=O)c2c(nc(Br)n2C)n(C)c1=O [8-bromocaffeine]
activity in stimulating UVB-induced apoptosis in mouse skin, compared with caffeine: little or no activity

Cn1c(=O)c2c(nc(Cl)n2C)n(C)c1=O [8-chlorocaffeine]
activity in stimulating UVB-induced apoptosis in mouse skin, compared with caffeine: little or no activity

Cn1c(=O)c2c(ncn2C)n(C)c1=O [Caffeine Citrated, citrated caffeine]
Percent Apoptotic Sunburn Cells (mean ± S.E.): 0.757 ± 0.199^b %
% Induction [1]: 271%

CC(=O)CCCCn1c(=O)c2c(ncn2C)n(C)c1=O [Pentoxifylline, pentoxifylline]
Percent Apoptotic Sunburn Cells (mean ± S.E.): 0.318 ± 0.068^ %
% Induction [1]: 56%
activity in stimulating UVB-induced apoptosis in mouse skin, compared with caffeine: little or no activity
activity in stimulating UVB-induced apoptosis, compared with caffeine: about half as active as caffeine

O=C([O-])c1ccccc1.[Na+] [Sodium benzoate, sodium benzoate]
Percent Sunburn Cells, UVB (6.2 μmole (each) in 100 μL acetone:water (9:1) immediately after UVB 30 mJ/cm^2 and at 30 and 120 min, 6 h, mean ± S.E.): 0.27 ± 0.08%
enhancement of UVB-induced apoptosis in the epidermis, applied in DERMABASE (DERMABASE vehicle, equimolar amounts (Table 4)): inactive
% Induction (Table 2, vs acetone, 6.2 μmole in acetone:water (9:1)): 29%

Cn1cnc2c1c(=O)[nH]c(=O)n2C [Theobromine, 3,7-dimethylxanthine]
Percent Apoptotic Sunburn Cells (mean ± S.E.): 0.358 ± 0.064^ %
% Induction [1]: 75%
activity in stimulating UVB-induced apoptosis in mouse skin, compared with caffeine: little or no activity
activity in stimulating UVB-induced apoptosis, compared with caffeine: about half as active as caffeine

Cn1c(=O)c2[nH]cnc2n(C)c1=O [Theophylline, 1,3-dimethylxanthine]
Percent Apoptotic Sunburn Cells (mean ± S.E.): 0.703 ± 0.171^b %
% Induction [1]: 245%
activity in stimulating UVB-induced apoptosis in mouse skin, compared with caffeine: as active as caffeine
activity in stimulating UVB-induced apoptosis, compared with caffeine: somewhat more active than caffeine

O=c1[nH]c(=O)c2[nH]cnc2[nH]1 [Xanthine, xanthine]
Percent Apoptotic Sunburn Cells (mean ± S.E.): 0.221 ± 0.046^ %
% Induction [1]: 8%
activity in stimulating UVB-induced apoptosis in mouse skin, compared with caffeine: little or no activity
